# Assay results published in patent publication US20220330549A1, “USE OF N-BENZYLBENZAMIDE-BASED COMPOUND AS HERBICIDE” (Northwest A&F University, priority 2020, published 2022).
# How the values were obtained:
# Assay type in all cases: in vivo
# Barnyard grass [1] = assay: Herbicidal activity test for indoor pre-emergence soil treatment; settings: 150 g a.i./ha, visual inspection 21 days after treatment
# In short: (§1)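 Pre-emergence test following NY/T 1155.3-2006: weed seeds were sown in moistened neutral sandy loam (≤2% organic matter) and covered with 0.5–2.0 cm of soil. After 24 h, the soil was sprayed with a 10% EC diluted in water at 150 g(a.i.)/ha. Damage was scored visually on a 1–9 scale at 21 days.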
# Piemarker [2] = assay: as above; settings: 150 g a.i./ha, visual inspection 21 days after treatment
# In short: as §1
# green bristlegrass [3] = assay: as above; settings: 150 g a.i./ha, visual inspection 21 days after treatment
# In short: as §1
# Amaranthus retroflexus [4] = assay: as above; settings: 150 g a.i./ha, visual inspection 21 days after treatment
# In short: as §1
# Digitaria sanguinalis [5] = assay: as above; settings: 150 g a.i./ha, visual inspection 21 days after treatment
# In short: as §1
# Humulus scandens [6] = assay: as above; settings: 150 g a.i./ha, visual inspection 21 days after treatment
# In short: as §1
# Amaranthus retroflexus [7] = assay: Herbicidal activity test for indoor post-emergence spraying on stems and leaves; settings: 150 g a.i./ha, visual inspection 21 days after treatment
# In short: (§2)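 Greenhouse-grown weeds, post-emergence foliar spray (NY/T 1155.4-2006 method); visual scoring at 21 d post-treatment as levels vs. untreated blank control (e.g., level 5 = 10.1–15%, level 8 = 35.1–67.5% of control weed).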
# Barnyard grass [8] = assay: as above; settings: 150 g a.i./ha, visual inspection 21 days after treatment
# In short: as §2
# Digitaria sanguinalis [9] = assay: as above; settings: 150 g a.i./ha, visual inspection 21 days after treatment
# In short: as §2
# Humulus scandens [10] = assay: as above; settings: 150 g a.i./ha, visual inspection 21 days after treatment
# In short: as §2
# Piemarker [11] = assay: as above; settings: 150 g a.i./ha, visual inspection 21 days after treatment
# In short: as §2
# green bristlegrass [12] = assay: as above; settings: 150 g a.i./ha, visual inspection 21 days after treatment
# In short: as §2
# Broadleaf weed = assay: Post-emergence herbicidal activity test in a paddy field; settings: 150 g a.i./ha (penoxsulam control 250 g(a.i.)/h)
# In short: (§3)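 Efficacy was visually estimated 15 and 30 days after spraying, grading weed coverage relative to an untreated neighbouring plot (level 2 = 0 to 2.5%, level 9 = 67.6 to 100%). Treatments were 150 g(a.i.)/ha from 10% emulsifiable concentrates applied at the 4-5 leaf rice stage, four repeats of 50 m^2 each.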
# Cyperaceae = assay: as above; settings: 150 g a.i./ha (penoxsulam control 250 g(a.i.)/h)
# In short: as §3
# Gramineae = assay: as above; settings: 150 g a.i./ha (penoxsulam control 250 g(a.i.)/h)
# In short: as §3
# Acalypha australis = assay: Field test for weed control in a corn field
# In short: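 Herbicidal activity against weeds was assessed in corn plots by the GB/T 17980.42-2000 method. Corn at the 2–5 leaf stage received water sprays of 10% emulsifiable concentrates at 150 g(a.i.)/ha, four repeats per treatment over 20 m^2. A 25% mesotrione oil dispersion was the reference. Damage symptoms and severity were rated on levels 1-9 relative to weeds in the blank control area.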
# Amaranthus retroflexus [13] = assay: Field test for weed control in a corn field
# In short: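 Post-emergence control of Amaranthus retroflexus was assessed in corn plots using the GB/T 17980.42-2000 method. Emulsifiable concentrates (10%) in water were applied by spraying at the 2- to 5-leaf crop stage on 20 m^2 plots, four replicates each, alongside a mesotrione 25% oil dispersion reference. Herbicidal activity was scored on 1-9 levels by weed amount relative to blank control areas.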
# Barnyard grass [14] = assay: Field test for weed control in a corn field
# In short: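 Herbicidal activity against barnyard grass was assessed in corn field plots of 20 m^2, with four replicates per treatment. Compounds were applied as water-diluted 10% emulsifiable concentrates at 150 g(a.i.)/ha at the 2-5 leaf corn stage, with 25% mesotrione oil dispersion as the reference agent. Damage was scored on a 1-9 scale against untreated blank plots.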
# Chenopodium album = assay: Field test for weed control in a corn field
# In short: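 Field weed-control testing in corn, run per GB/T 17980.42-2000, scored Chenopodium album on a 1-9 level scale, where each level matches a percentage range of weed remaining relative to the blank control area. Sprays of 10% emulsifiable concentrates in water delivered 150 g(a.i.)/ha at the corn 2-leaf to 5-leaf stage on 20 m^2 plots, four replicates each. Mesotrione 25% oil dispersion served as reference.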
# Convolvulus arvensis = assay: Field test for weed control in a corn field
# In short: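 Post-emergence herbicidal activity on Convolvulus arvensis was scored in a corn field on a 1-9 scale, based on symptoms and damage severity. Each level corresponds to the weed remaining as a percentage of the blank control area. Sprays of 10% emulsifiable concentrate at 150 g(a.i.)/ha went on at the corn 2–5 leaf stage, with four replicates of 20 m^2 per treatment.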
# Digitaria sanguinalis [15] = assay: Field test for weed control in a corn field
# In short: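 Field trial in a corn field following GB/T 17980.42-2000. Test compounds were formulated as 10% emulsifiable concentrates, diluted in water and sprayed post-emergence at 150 g(a.i.)/ha when corn had 2 to 5 leaves, with 4 replicates on 20 m^2 plots. Control of Digitaria sanguinalis was scored on a 1-9 scale based on weed damage relative to the untreated blank area.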
# Portulaca oleracea = assay: Field test for weed control in a corn field
# In short: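 Post-emergence weed control was evaluated in a corn field by the GB/T 17980.42-2000 method. Emulsifiable concentrates (10%) in water were applied as sprays at 150 g(a.i.)/ha at the 2-5 leaf corn stage, in four replicate 20 m^2 plots. A 25% mesotrione oil dispersion served as control agent. Effects were graded 1-9 relative to weed remaining in blank control areas.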
# Solanum nigrum = assay: Field test for weed control in a corn field
# In short: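 In a corn field trial based on GB/T 17980.42-2000, 10% emulsifiable concentrates diluted in water were sprayed at 150 g(a.i.)/ha at the 2 to 5 leaf stage of corn. Each treatment used 20 m^2 plots and was repeated 4 times, with 25% mesotrione oil dispersion as the reference agent. Solanum nigrum damage was scored on a 1-9 scale against blank control plots.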
# goosegrass = assay: Field test for weed control in a corn field
# In short: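 In this field trial in corn, run per GB/T 17980.42-2000, test agents prepared as 10% emulsifiable concentrates were applied in water as sprays at 150 g(a.i.)/ha at the 2- to 5-leaf corn stage. Each treatment covered 20 m^2 and was repeated 4 times. Goosegrass control was scored 1-9 relative to weed remaining in blank control areas.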
# green bristlegrass [16] = assay: Field test for weed control in a corn field
# In short: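 Herbicidal activity against green bristlegrass was assessed in corn field plots of 20 m^2 per GB/T 17980.42-2000. Test agents, formulated as 10% emulsifiable concentrates, were applied in water at 150 g(a.i.)/ha at the corn 2 leaves to 5 leaves stage, repeated 4 times. A 25% mesotrione oil dispersion served as the control agent, and weed damage was rated on levels 1-9.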
# nutgrass flatsedge = assay: Field test for weed control in a corn field
# In short: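 Herbicidal effect on nutgrass flatsedge was measured in a field planted with corn, using the GB/T 17980.42-2000 method. Emulsifiable concentrates (10%) in water were sprayed at 150 g(a.i.)/ha during the 2-leaf to 5-leaf corn stage, on 20 m^2 plots repeated 4 times. 25% mesotrione oil dispersion was the control agent. Activity was scored from 1 to 9 by weed remaining relative to blank control plots.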
# [17] = 150 g(a.i.)/ha, 21 days after treatments
# [18] = 150 g a.i./ha, 30 days after treatment
smiles,measurement,setting,value
"Cc1cccc(CNC(=O)c2cccc(C)c2)c1 [Compound B14, 3-methyl-N-(3-methylbenzyl)benzamide]",Herbicidal Activity Barnyard grass,Barnyard grass [1],1
same,Herbicidal Activity Piemarker,Piemarker [2],1
same,Herbicidal Activity Green bristlegrass,green bristlegrass [3],1
same,Herbicidal Activity Amaranthus retroflexus,Amaranthus retroflexus [4],2 (equivalent to 0 to 2.5% of the weed in the blank control area)
same,Herbicidal Activity Digitaria sanguinalis,Digitaria sanguinalis [5],2 (equivalent to 0 to 2.5% of the weed in the blank control area)
same,Herbicidal Activity Humulus scandens,Humulus scandens [6],3 (equivalent to 2.6 to 5% of the weed in the blank control area)
same,Herbicidal Activity Amaranthus retroflexus,Amaranthus retroflexus [7],1
same,Herbicidal Activity Barnyard grass,Barnyard grass [8],1
same,Herbicidal Activity Digitaria sanguinalis,Digitaria sanguinalis [9],1
same,Herbicidal Activity Humulus scandens,Humulus scandens [10],1
same,Herbicidal Activity Piemarker,Piemarker [11],1
same,Herbicidal Activity Green bristlegrass,green bristlegrass [12],1
same,Herbicidal activity 15 days after treatment Broadleaf weed,Broadleaf weed; 15 days after treatment,1
same,Herbicidal activity 30 days after treatment Broadleaf weed,Broadleaf weed; 30 days after treatment,1
same,Herbicidal activity 15 days after treatment Cyperaceae,Cyperaceae; 15 days after treatment,1
same,Herbicidal activity 30 days after treatment Cyperaceae,Cyperaceae; 30 days after treatment,1
same,Herbicidal activity 15 days after treatment Gramineae,Gramineae; 15 days after treatment,1
same,Herbicidal activity 30 days after treatment Gramineae,Gramineae; 30 days after treatment,1
same,"Post-emergence weed control effect, Acalypha australis","Acalypha australis; 150 g a.i./ha, after treatment",1
same,controlling effect on Acalypha australis,Acalypha australis; [17],1
same,"Post-emergence weed control effect, Amaranthus retroflexus",Amaranthus retroflexus [13]; [18],1
same,controlling effect on Amaranthus retroflexus,Amaranthus retroflexus [13]; [17],1
same,"Post-emergence weed control effect, Barnyard grass",Barnyard grass [14]; [18],1
same,controlling effect on barnyard grass,Barnyard grass [14]; [17],1
same,"Post-emergence weed control effect, Chenopodium album","Chenopodium album; 150 g a.i./ha, after treatment",1
same,controlling effect on Chenopodium album,Chenopodium album; [17],1
same,"Post-emergence weed control effect, Convolvulus arvensis","Convolvulus arvensis; 150 g a.i./ha, after treatment",1
same,controlling effect on Convolvulus arvensis,Convolvulus arvensis; [17],1
same,"Post-emergence weed control effect, Digitaria sanguinalis","Digitaria sanguinalis [15]; 150 g a.i./ha, after treatment",1
same,controlling effect on Digitaria sanguinalis,Digitaria sanguinalis [15]; [17],1
same,"Post-emergence weed control effect, Portulaca oleracea","Portulaca oleracea; 150 g a.i./ha, after treatment",1
same,controlling effect on Portulaca oleracea,Portulaca oleracea; [17],1
same,"Post-emergence weed control effect, Solanum nigrum",Solanum nigrum; [18],1
same,controlling effect on Solanum nigrum,Solanum nigrum; [17],1
same,"Post-emergence weed control effect, Goose grass","goosegrass; 150 g a.i./ha, after treatment",1
same,controlling effect on goosegrass,goosegrass; [17],1
same,"Post-emergence weed control effect, Green bristlegrass","green bristlegrass [16]; 150 g a.i./ha, after treatment",1
same,controlling effect on green bristlegrass,green bristlegrass [16]; [17],1
same,"Post-emergence weed control effect, Nutgrass flatsedge","nutgrass flatsedge; 150 g a.i./ha, after treatment",1
same,controlling effect on nutgrass flatsedge,nutgrass flatsedge; [17],1
